Experimental data: patent US20070203091A1, “Methods and therapeutic compositions for improving liver, blood flow and skeletal muscle functions in advanced diseases and aging” (priority 2006, published 2007)

What was measured:
[1] = ATP pharmacokinetics: blood plasma (extracellular) ATP levels, Phase I study; format: in vivo, human; details: for Initial Extracellular ATP Concentration, Median: ITT
Procedure: The solution was administered by continuous intravenous infusions using an Ivac or similar infusion device through venous access in a peripheral vein. If venous access was a problem, either a Hickman catheter or its equivalent, or an Infusaport or its equivalent was inserted to provide vascular access.
The 50 μg/kg/min dose could be reduced to 25 μg/kg/min if adverse effects occurred. […] Succeeding infusions in that patient were at the infusion dose tolerated at the end of the previous treatment. If adverse events occurred in patients being infused at 25 μg/kg/min, the infusions were terminated and the patient received no additional infusions.

[2] = Karnofsky Performance Status, Phase I study; format: in vivo, human; details: for Karnofsky Performance Status, Change from Baseline, Mean / Karnofsky Performance Status, Change from Baseline, Median / Karnofsky Performance Status, Observed Values, Mean / Karnofsky Performance Status, Observed Values, Median: ITT
Source text: The present patient population was clinically deteriorating rapidly with four of the fifteen patients not meeting the protocol inclusion criteria and being granted exemptions (page 15-18). An amendment to the protocol had to be sought because Karnofsky Performance Status of some patients dropped between the screening date and the first pre-infusion date. Considering the clinical status of the present patient population at the start of the trial along with Karnofsky Performance Score being a surrogate end-point for Quality of Life in advanced, refractory, terminal cancers, these findings support claims reciting benefits to quality of life by claimed treatment in a human host in need thereof.

[3] = Quality of life (EORTC QLQ-C30), appetite, energy and body weight, Phase I study; format: in vivo, human
Source text: Nine qualified patients have been enrolled in the study as of Sep. 1, 2001; seven of which received the first 3 cycles of the study drug and are therefore evaluable for the primary endpoint. Two of the seven evaluable patients had advanced prostate cancer with bone metastases and one each had advanced mesothelioma, metastatic breast cancer, metastatic melanoma, metastatic colon cancer and renal cell carcinoma.
Three of these parameters are EORTC QLQ-C30 patient-oriented questionnaire, skeletal (voluntary) muscle strength and percent body fat. […] The screening value is used as the patients' baseline. In some patients a deterioration in overall quality of life between screening and week 1, prior to the administration of study drug has been observed. […] A more accurate baseline for evaluation of the efficacy of ATP treatment on cancer cachexia and quality of life parameters is therefore recommended.

[4] = cited from earlier work
[5] = cited from earlier work; remark: listed apart in the source
[6] = Week 1 (Infusion 1), baseline, N=15
[7] = patients 502-505, week 1 (pre-dose) to week 13 (follow-up)
[8] = Patient 504, while on ATP treatment
[9] = patients 502-505, week 13 follow-up
[10] = low levels of ATP administered directly into the duodenum

Structure (SMILES): Nc1ncnc2c1ncn2[C@@H]1O[C@H](COP(=O)(O)OP(=O)(O)OP(=O)(O)O)[C@@H](O)[C@H]1O [ATP, adenosine 5′-triphosphate]
- blood plasma (extracellular) ATP levels ([1]; ATP continuously for eight hours): increases
- Initial Extracellular ATP Concentration, Median ([1]; Week 1 (Infusion 1), 4 hours into infusion, N=13): 0.109 µM
- Initial Extracellular ATP Concentration, Median ([1]; Week 1 (Infusion 1), 8.25 hours, N=1): 0.141 µM
- Initial Extracellular ATP Concentration, Median ([1]; Week 1 (Infusion 1), 9 hours, N=10): 0.150 µM
- Initial Extracellular ATP Concentration, Median ([1]; Week 1 (Infusion 1), 10 hours, N=12): 0.091 µM
- Initial Extracellular ATP Concentration, Median ([1]; Week 1 (Infusion 1), 11 hours, N=12): 0.062 µM
- Initial Extracellular ATP Concentration, Median ([1]; Week 1 (Infusion 1), 12 hours, N=11): 0.044 µM
- Initial Extracellular ATP Concentration, Median ([1]; Week 1 (Infusion 1), 14 hours, N=8): 0.029 µM
- Initial Extracellular ATP Concentration, Median ([1]; Week 1 (Infusion 1), 16 hours, N=10): 0.050 µM
- Initial Extracellular ATP Concentration, Median ([1]; Week 1 (Infusion 1), 20 hours, N=8): 0.052 µM
- Initial Extracellular ATP Concentration, Median ([1]; Week 1 (Infusion 1), 24 hours, N=12): 0.079 µM
- Initial Extracellular ATP Concentration, Median ([1]; Week 1 (Infusion 1), […], N=10): 0.238 µM
- Initial Extracellular ATP Concentration, Median ([1]; Week 3 (Infusion 3), 4 hours into infusion, N=9): 0.200 µM
- Initial Extracellular ATP Concentration, Median ([1]; Week 3 (Infusion 3), 8 hours (before the end), N=9): 0.240 µM
- Initial Extracellular ATP Concentration, Median ([1]; Week 3 (Infusion 3), 8.25 hours, N=1): 0.055 µM
- Initial Extracellular ATP Concentration, Median ([1]; Week 3 (Infusion 3), 9 hours, N=9): 0.170 µM
- Initial Extracellular ATP Concentration, Median ([1]; Week 3 (Infusion 3), 10 hours, N=9): 0.060 µM
- Initial Extracellular ATP Concentration, Median ([1]; Week 3 (Infusion 3), 11 hours, N=10): 0.060 µM
- Initial Extracellular ATP Concentration, Median ([1]; Week 3 (Infusion 3), 12 hours, N=8): 0.065 µM
- Initial Extracellular ATP Concentration, Median ([1]; Week 3 (Infusion 3), 14 hours, N=6): 0.032 µM
- Initial Extracellular ATP Concentration, Median ([1]; Week 3 (Infusion 3), 16 hours, N=5): 0.040 µM
- Initial Extracellular ATP Concentration, Median ([1]; Week 3 (Infusion 3), 20 hours, N=5): 0.070 µM
- Initial Extracellular ATP Concentration, Median ([1]; Week 3 (Infusion 3), 24 hours, N=8): 0.044 µM
- Initial Extracellular ATP Concentration, Median ([1]; Week 3 (Infusion 3), Time ‘0’ (pre-infusion), N=10): 0.055 µM
- Initial Extracellular ATP Concentration, Median ([1]; Week 3 (Infusion 3), […], N=9): 0.200 µM
- Initial Extracellular ATP Concentration, Median ([1]; Week 8 (infusion 8), 4 hours into infusion, N=3): 0.390 µM
- Initial Extracellular ATP Concentration, Median ([1]; Week 8 (infusion 8), Time ‘0’ (pre-infusion), N=3): 0.080 µM
- Karnofsky Performance Status ([2]; ITT patient population): stabilize
- Karnofsky Performance Status, Change from Baseline, Mean [2, 6]: 0.0%
- Karnofsky Performance Status, Change from Baseline, Median [2, 6]: 0.0%
- Karnofsky Performance Status, Observed Values, Mean [2, 6]: 78.0%
- Karnofsky Performance Status, Observed Values, Median [2, 6]: 80.00%
- Karnofsky Performance Status, Change from Baseline, Mean ([2]; Week 2 (Infusion 2), N=14): −2.1%
- Karnofsky Performance Status, Change from Baseline, Median ([2]; Week 2 (Infusion 2), N=14): 0.0%
- Karnofsky Performance Status, Observed Values, Mean ([2]; Week 2 (Infusion 2), N=14): 77.1%
- Karnofsky Performance Status, Observed Values, Median ([2]; Week 2 (Infusion 2), N=14): 75.0%
- Karnofsky Performance Status, Change from Baseline, Mean ([2]; Week 3 (Infusion 3), N=13): −2.3%
- Karnofsky Performance Status, Change from Baseline, Median ([2]; Week 3 (Infusion 3), N=13): 0.0%
- Karnofsky Performance Status, Observed Values, Mean ([2]; Week 3 (Infusion 3), N=13): 76.9%
- Karnofsky Performance Status, Observed Values, Median ([2]; Week 3 (Infusion 3), N=13): 80.0%
- Karnofsky Performance Status, Change from Baseline, Mean ([2]; Week 4 (Infusion 4), N=11): −0.9%
- Karnofsky Performance Status, Change from Baseline, Median ([2]; Week 4 (Infusion 4), N=11): 0.0%
- Karnofsky Performance Status, Observed Values, Mean ([2]; Week 4 (Infusion 4), N=11): 78.2%
- Karnofsky Performance Status, Observed Values, Median ([2]; Week 4 (Infusion 4), N=11): 80.0%
- Karnofsky Performance Status, Change from Baseline, Mean ([2]; Week 5 (Infusion 5), N=10): −7.0%
- Karnofsky Performance Status, Change from Baseline, Median ([2]; Week 5 (Infusion 5), N=10): 0.0%
- Karnofsky Performance Status, Observed Values, Mean ([2]; Week 5 (Infusion 5), N=10): 71.0%
- Karnofsky Performance Status, Observed Values, Median ([2]; Week 5 (Infusion 5), N=10): 75.0%
- Karnofsky Performance Status, Change from Baseline, Mean ([2]; Week 6 (Infusion 6), N=9): −4.4%
- Karnofsky Performance Status, Change from Baseline, Median ([2]; Week 6 (Infusion 6), N=9): 0.0%
- Karnofsky Performance Status, Observed Values, Mean ([2]; Week 6 (Infusion 6), N=9): 74.4%
- Karnofsky Performance Status, Observed Values, Median ([2]; Week 6 (Infusion 6), N=9): 80.0%
- Karnofsky Performance Status, Change from Baseline, Mean ([2]; Week 7 (Infusion 7), N=7): −4.3%
- Karnofsky Performance Status, Change from Baseline, Median ([2]; Week 7 (Infusion 7), N=7): 0.0%
- Karnofsky Performance Status, Observed Values, Mean ([2]; Week 7 (Infusion 7), N=7): 72.9%
- Karnofsky Performance Status, Observed Values, Median ([2]; Week 7 (Infusion 7), N=7): 70.0%
- Karnofsky Performance Status, Change from Baseline, Mean ([2]; Week 8 (Infusion 8), N=7): −5.7%
- Karnofsky Performance Status, Change from Baseline, Median ([2]; Week 8 (Infusion 8), N=7): −10.0%
- Karnofsky Performance Status, Observed Values, Mean ([2]; Week 8 (Infusion 8), N=7): 71.4%
- Karnofsky Performance Status, Observed Values, Median ([2]; Week 8 (Infusion 8), N=7): 70.0%
- Karnofsky Performance Status, Change from Baseline, Mean ([2]; Week 10 (Follow-up), N=6): −5.0%
- Karnofsky Performance Status, Change from Baseline, Median ([2]; Week 10 (Follow-up), N=6): −5.0%
- Karnofsky Performance Status, Observed Values, Mean ([2]; Week 10 (Follow-up), N=6): 73.3%
- Karnofsky Performance Status, Observed Values, Median ([2]; Week 10 (Follow-up), N=6): 70.0%
- Karnofsky Performance Status, Change from Baseline, Mean ([2]; Week 13 (Follow-up), N=5): −4.0%
- Karnofsky Performance Status, Change from Baseline, Median ([2]; Week 13 (Follow-up), N=5): 0.0%
- Karnofsky Performance Status, Observed Values, Mean ([2]; Week 13 (Follow-up), N=5): 76.0%
- Karnofsky Performance Status, Observed Values, Median ([2]; Week 13 (Follow-up), N=5): 80.0%
- Karnofsky Performance Status [2, 7]: Small increases
- patient's comment on energy / appetite ([3]; Patient 502, during the treatment period): improved energy levels
- patient's comment on energy / appetite ([3]; Patient 503, during ATP therapy): improved energy and appetite
- patient's comment on energy / appetite [3, 8]: increased energy and appetite
- weight [3, 8]: increasing
- patient's comment on energy / appetite ([3]; Patient 505, while on study): improved energy and appetite
- patient's comment on energy / appetite ([3]; Patient 506): more energy and improved appetite
- Other Endpoints (patient's comment on energy) ([3]; Patient 507, while on ATP Rx): Felt more energy
- patient's comment on energy / activity ([3]; Patient 509): subjective improvement in energy and activity
- subjective comments of several patients on appetite and energy ([3]; during the study, first nine patients): improved appetite and energy
- Global Health Status of the QOL EORTC QLQ-C30 ([3]; patients 502-505, screening (week <1) to follow-up (week 10)): Increases
- appetite loss ([3]; patients 502-505, screening to week 10 (follow-up)): Decreases
- body weight [3, 7]: Stabilization
- Global Health Status of the QOL EORTC QLQ-C30 [3, 9]: decline
- appetite loss [3, 9]: return to screening baseline
- arterial oxygen pressure (PaO2) ([4]; after the administration of ATP into the duodenum): increase
- Pulmonary Vascular Resistance [4, 10]: reductions
- arterial blood pressure or heart rate [4, 10]: No effects
- blood flow [4, 10]: increases
- peripheral vascular resistance [4, 10]: reductions
- increase in vascular diameter ([5]; blood plasma ATP about 1 microM): 8%
- increase in blood flow ([5]; blood plasma ATP about 1 microM, corresponding to the increase in vascular diameter): ≥ 17%
- site of vasodilation ([5]; intraluminal, physiological concentrations): not only local vasodilation, but also vasodilation at sites upstream from the site of its application
